Results reported in US20210017295A1, “BISPECIFIC BINDING AGENTS AND USES THEREOF” (MEMORIAL SLOAN KETTERING CANCER CENTER, priority 2018, published 2021).
Where “and” joins values, the source holds several entries; their conditions need not be identical. Equal entries are not always repeated.

Assays:
[1] = Histopathology at necropsy and pathology severity scoring; assay type: in vivo, mouse; details: small tumors; single-cycle study; ~85 d; individual animals
Clinical chemistry panel = assay type: in vivo, mouse; details: small tumors; single-cycle study, 55.5 MBq; ~85 d

Question: For `Nc1ccc(CC2CN(CC(=O)[O-])CCN(CC(=O)[O-])CCN(CC(=O)[O-])CCN2CC(=O)[O-])cc1.[177Lu+3]` (stereo not shown) [^177Lu-DOTA-Bn], which “Histopathologic findings, Bone marrow” value [1] is on record?
Answer: N

Question: What about the “Histopathologic findings, Kidney” value [1] of the same compound?
Answer: N

Question: What about the “Histopathologic findings, Liver” value [1] of the same compound?
Answer: N

Question: And the “Histopathologic findings, Spleen” value [1]?
Answer: HH, 3. and N (2×)

Question: What about the ALT (Clinical chemistry panel) of the same compound?
Answer: 34 U/L and 40 U/L and 30 U/L and 45 U/L and 24 U/L

Question: And the BUN (Clinical chemistry panel)?
Answer: 22 mg/dL and 21 mg/dL and 23 mg/dL and 33 mg/dL and 38 mg/dL

Question: And the CREA (Clinical chemistry panel)?
Answer: 0.20 mg/dL and 0.18 mg/dL and 0.19 mg/dL and 0.30 mg/dL and 0.22 mg/dL
